# Data: patent US20060035209A1, “Screening method” (priority 2002, published 2006)
# How the values were obtained:
# Format in all cases: in vivo, rat
# Zucker fatty rats = experiment: Urinary albumin excretion in Zucker fatty rats (24-hour urine pooling, A/G B Test Wako)
# Excerpt: (§1) Male Zucker fatty rats (ZF rats, 18 weeks of age, Charles River Japan Inc.), which have hyperinsulinemia and spontaneously develop renal disease, were given oral administration of candesartan cilexetil (angiotensin II type 1 receptor antagonist) in suspension in 0.5% methylcellulose 100 cP once daily for 9 consecutive weeks. For a control group and a normal control group, male Zucker lean rats at the same weeks of age (ZL rats, Charles River Japan Inc.) were given oral administration of 0.5% methylcellulose 100 cP (vehicle) once daily for consecutive days. At 8 weeks of administration, 24-hour urine pooling was conducted, and urinary albumin excretion was measured using the A/G B Test Wako (Wako Pure Chemical Industries, Ltd.). At 9 weeks of administration, kidneys were collected and stored at −80° C. After the sample was disrupted, total RNA was extracted. A primer and a fluorescent probe were prepared on the basis of reported (ibidem) mRNA sequences, and various mRNA expression levels were measured by the real-time quantitative RT-PCR method using ABI PRISM7700 (Applied Biosystems).
# TSC-22 mRNA = TSC-22 mRNA expression level in kidneys of Zucker fatty rats (real-time quantitative RT-PCR)
# Excerpt: as §1
# TGF-β1 mRNA = TGF-β1 mRNA expression level in kidneys of Zucker fatty rats (real-time quantitative RT-PCR)
# Excerpt: as §1
# [1] = Zucker fatty rats, administration of the drug
compound,measurement,setting,value
"CCOc1nc2cccc(C(=O)OC(C)OC(=O)OC3CCCCC3)c2n1Cc1ccc(-c2ccccc2-c2nnn[nH]2)cc1 (stereo not drawn) [Candesartan cilexetil, candesartan cilexetil]",increase in urinary albumin excretion (in words),Zucker fatty rats; [1],suppressed
same,Urinary albumin excretion,"Zucker fatty rats; male ZF rats, oral once daily, at 8 weeks of administration, n = 8-9, Mean (ZF vehicle 401.5, ZL vehicle 48.5)",61.7 mg/day
same,increase in TSC-22 mRNA expression level in the kidneys (in words),TSC-22 mRNA; [1],suppressed
same,mRNA expression level of TSC-22 in the kidneys (relative value with the expression level in the kidneys of Zucker lean rats as 1),"TSC-22 mRNA; male ZF rats, oral once daily, kidneys collected at 9 weeks of administration, n = 8-9, Mean (ZF vehicle 2.4)",1.6
same,increase in TGF-β1 mRNA expression level in the kidneys (in words),TGF-β1 mRNA; [1],suppressed
same,mRNA expression level of TGF-β1 in the kidneys (relative value with the expression level in the kidneys of Zucker lean rats as 1),"TGF-β1 mRNA; male ZF rats, oral once daily, kidneys collected at 9 weeks of administration, n = 8-9, Mean (ZF vehicle 2.1)",1.2
